From PubChem BioAssay (NCI)
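Test compounds were applied to cells in 96-well plates for 48 hours at 5 doses. TGI: total growth inhibition.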

How the values were obtained:
Assay in all cases: DTP human tumour cell line panel, 48 h
CCRF-CEM leukemia = tested on: CCRF-CEM leukemia
OVCAR-4 ovarian = tested on: OVCAR-4 ovarian
UO-31 renal = tested on: UO-31 renal
NCI-H460 lung = tested on: NCI-H460 lung
NCI-H226 lung = tested on: NCI-H226 lung
OVCAR-5 ovarian = tested on: OVCAR-5 ovarian
KM20L2 colon = tested on: KM20L2 colon
RXF 393 renal = tested on: RXF 393 renal
COLO 205 colon = tested on: COLO 205 colon
UACC-62 melanoma = tested on: UACC-62 melanoma
LXFL 529 NSCLC = tested on: LXFL 529 NSCLC
HCT-116 colon = tested on: HCT-116 colon
A549 NSCLC = tested on: A549 NSCLC
K-562 leukemia = tested on: K-562 leukemia
SF-268 CNS = tested on: SF-268 CNS
SF-295 CNS = tested on: SF-295 CNS
OVCAR-3 ovarian = tested on: OVCAR-3 ovarian
U251 CNS = tested on: U251 CNS
A498 renal = tested on: A498 renal
TK-10 renal = tested on: TK-10 renal
LOX IMVI melanoma = tested on: LOX IMVI melanoma
RPMI-8226 leukemia = tested on: RPMI-8226 leukemia
DLD-1 colon = tested on: DLD-1 colon
OVCAR-8 ovarian = tested on: OVCAR-8 ovarian
SN12C renal = tested on: SN12C renal
DMS 273 small cell lung = tested on: DMS 273 small cell lung
NCI-H522 lung = tested on: NCI-H522 lung
SF-539 CNS = tested on: SF-539 CNS
HL-60(TB) leukemia = tested on: HL-60(TB) leukemia
HCT-15 colon = tested on: HCT-15 colon
SK-MEL-28 melanoma = tested on: SK-MEL-28 melanoma
XF 498 CNS = tested on: XF 498 CNS
M19-MEL melanoma = tested on: M19-MEL melanoma
UACC-257 melanoma = tested on: UACC-257 melanoma
DMS 114 small cell lung = tested on: DMS 114 small cell lung
RXF-631 renal = tested on: RXF-631 renal
M14 melanoma = tested on: M14 melanoma
786-0 renal = tested on: 786-0 renal
SNB-19 CNS = tested on: SNB-19 CNS
SK-OV-3 ovarian = tested on: SK-OV-3 ovarian
HOP-62 NSCLC = tested on: HOP-62 NSCLC
IGROV1 ovarian = tested on: IGROV1 ovarian
KM12 colon = tested on: KM12 colon
SK-MEL-5 melanoma = tested on: SK-MEL-5 melanoma
EKVX NSCLC = tested on: EKVX NSCLC
SW-620 colon = tested on: SW-620 colon
HOP-92 NSCLC = tested on: HOP-92 NSCLC
CAKI-1 renal = tested on: CAKI-1 renal
SK-MEL-2 melanoma = tested on: SK-MEL-2 melanoma
ACHN renal = tested on: ACHN renal
MALME-3M melanoma = tested on: MALME-3M melanoma
SNB-75 CNS = tested on: SNB-75 CNS
HT29 colon = tested on: HT29 colon
SNB-78 CNS = tested on: SNB-78 CNS
NCI-H23 lung = tested on: NCI-H23 lung
MOLT-4 leukemia = tested on: MOLT-4 leukemia
HOP-18 NSCLC = tested on: HOP-18 NSCLC
HCC-2998 colon = tested on: HCC-2998 colon

Measured: TGI

CCc1cccc(C)c1N1C(=O)C(=O)C(c2nc3ccccc3o2)/C(=N/NC(=S)NN)C1=O (configuration not stated)
not listed: MOLT-4 leukemia | HOP-18 NSCLC | HCC-2998 colon
> 100 µM: all other assays above

Cc1ccccc1C=NC12CC3CC(CC(C3)C1)C2
not listed: XF 498 CNS
> 100 µM: all other assays above
